Reference: PubChem BioAssay (NCI)
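Five compound concentrations were applied to cells in 96-well plates for 48 hours; endpoints were derived by simple linear interpolation of the resulting dose-response curve. GI50: concentration for 50% inhibition of growth. Definition used: TGI = concentration required for complete inhibition of growth.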

Legend:
Assay in all cases: NCI-60 cell line screen, 48 h
RXF 393 renal = tested on: RXF 393 renal
CCRF-CEM leukemia = tested on: CCRF-CEM leukemia
NCI-H23 lung = tested on: NCI-H23 lung
786-0 renal = tested on: 786-0 renal
SK-MEL-28 melanoma = tested on: SK-MEL-28 melanoma
HOP-62 NSCLC = tested on: HOP-62 NSCLC
DU-145 prostate = tested on: DU-145 prostate
SK-MEL-5 melanoma = tested on: SK-MEL-5 melanoma
SF-539 CNS = tested on: SF-539 CNS
NCI/ADR-RES ovarian = tested on: NCI/ADR-RES ovarian

Structure (SMILES)	TGI (RXF 393 renal)	TGI (CCRF-CEM leukemia)	TGI (NCI-H23 lung)	TGI (786-0 renal)	TGI (SK-MEL-28 melanoma)	TGI (HOP-62 NSCLC)	TGI (DU-145 prostate)	TGI (SK-MEL-5 melanoma)	TGI (SF-539 CNS)	TGI (NCI/ADR-RES ovarian)	GI50 (RXF 393 renal)	GI50 (NCI/ADR-RES ovarian)	GI50 (NCI-H23 lung)	GI50 (786-0 renal)	GI50 (SK-MEL-28 melanoma)	GI50 (HOP-62 NSCLC)	GI50 (DU-145 prostate)	GI50 (SK-MEL-5 melanoma)	GI50 (SF-539 CNS)	GI50 (CCRF-CEM leukemia)
C[C@]12CC[C@H](O)CC1=CC[C@@H]1C2CC[C@]2(C)c3nn(-c4ccc(F)cc4)nc3CC12 (stereo partly specified)	> 100 µM	> 100 µM	> 100 µM	> 100 µM	> 100 µM	> 100 µM	> 100 µM	> 100 µM	> 100 µM	–	–	–	–	–	–	–	–	–	–	–
COc1ccccc1C1=C2C(=O)N(C)C(c3ccccc3OC)=C2C(=O)N1C	–	> 100 µM	> 100 µM	85.5 µM	> 100 µM	43.9 µM	> 100 µM	> 100 µM	64.2 µM	> 100 µM	–	–	–	–	–	–	–	–	–	–
COC(=O)COc1ccc(/C=C2\N=C(c3ccccc3)N(c3cc(C(F)(F)F)ccc3Cl)C2=O)cc1	> 100 µM	–	> 100 µM	> 100 µM	> 100 µM	> 100 µM	> 100 µM	> 100 µM	> 100 µM	> 100 µM	> 100 µM	52.6 µM	> 100 µM	> 100 µM	> 100 µM	64.9 µM	51.5 µM	46.1 µM	36 µM	–
O=C(Nc1ccc(-n2cc(-c3ccncc3)c(-c3ccc(Cl)c(O)c3)n2)cc1)Nc1cc(C(F)(F)F)cc(C(F)(F)F)c1	3.45 µM	–	4.91 µM	3.72 µM	4.34 µM	3.66 µM	3.34 µM	3.41 µM	6.4 µM	5.6 µM	1.45 µM	2.22 µM	2.13 µM	1.8 µM	2.01 µM	1.8 µM	1.78 µM	1.67 µM	1.94 µM	–
N/N=C(\CC1OC(=O)c2ccccc21)c1ccco1 (stereo unspecified)	> 100 µM	> 100 µM	> 100 µM	0.164 µM	> 100 µM	–	–	> 100 µM	> 100 µM	–	–	–	–	–	–	–	–	–	–	–
C=C1C[C@@H]2C/C=C/C(=O)C/C(C)=C\C=C\C(=O)O[C@H](C=O)C/C(C)=C/[C@H](C1)O2	–	0.956 µM	23.1 µM	18.3 µM	20.5 µM	17.3 µM	2.32 µM	16.6 µM	1.64 µM	> 100 µM	–	2.58 µM	5.16 µM	0.783 µM	2.91 µM	1.75 µM	0.455 µM	2.62 µM	0.328 µM	0.315 µM
C1CNCCNCCNCCN1	> 100 µM	> 100 µM	> 100 µM	> 100 µM	> 100 µM	> 100 µM	–	> 100 µM	> 100 µM	–	–	–	–	–	–	–	–	–	–	–
Cc1cc(O)c(C(=O)CC2(O)C(=O)Nc3c(Cl)cc(Cl)cc32)c(=O)o1 (stereo unspecified)	–	> 100 µM	> 100 µM	> 100 µM	> 100 µM	> 100 µM	–	> 100 µM	> 100 µM	–	–	–	–	–	–	–	–	–	–	–
COc1ccc2c(c1)nc(N)c1c3cc(OC)c(OC)cc3cn21	–	11 µM	5.7 µM	11.9 µM	19.9 µM	16.9 µM	8.63 µM	0.987 µM	1.69 µM	–	–	–	–	0.205 µM	–	–	–	0.0645 µM	0.0697 µM	0.0101 µM
CC(=O)OCSc1ncnc2c1ncn2CN1CCOCC1	> 100 µM	> 100 µM	53.2 µM	> 100 µM	> 100 µM	> 100 µM	–	> 100 µM	> 100 µM	–	–	–	–	–	–	–	–	–	–	–
COc1cc2c(c(OC)c1OC)-c1ccc(SC)c(=O)cc1[C@@H](NC(=O)c1ccc(OC(C)=O)cc1)CC2	0.0813 µM	> 100 µM	0.049 µM	12.9 µM	60 µM	22.2 µM	–	–	0.0357 µM	–	–	–	–	–	15 µM	0.0126 µM	–	0.0196 µM	–	–
COC1/C(=C\C(=O)OC(C)(C)C)c2ccccc2N1C(C)=O (stereo unspecified)	> 100 µM	> 100 µM	> 100 µM	> 100 µM	> 100 µM	> 100 µM	–	–	> 100 µM	–	–	–	–	–	–	–	–	–	–	–
COc1ccc2nc(-c3ccccc3)cc(Nc3ccc(C(C)=O)cc3)c2c1	–	–	11.9 µM	3.54 µM	> 100 µM	–	27.1 µM	3.86 µM	4.21 µM	7.29 µM	–	2.78 µM	3.51 µM	1.31 µM	29.5 µM	–	14.1 µM	1.6 µM	2.37 µM	–
N#CCc1ccc(C(C#N)/C(CCCC(=O)Nc2cccc([N+](=O)[O-])c2)=N\NC(=O)NN)cc1 (stereo unspecified)	> 100 µM	> 100 µM	> 100 µM	> 100 µM	> 100 µM	> 100 µM	–	> 100 µM	> 100 µM	–	–	–	–	–	–	–	–	–	–	–
O=[N+]([O-])c1ccc(Sc2c3ccccc3nc3ccccc23)cc1	> 100 µM	> 100 µM	> 100 µM	> 100 µM	> 100 µM	> 100 µM	–	> 100 µM	> 100 µM	–	–	–	–	–	–	–	–	–	–	–
Cc1cccc(C)c1NC(=O)CCCC(=O)CC(=O)/C=C/c1ccccc1	> 100 µM	> 100 µM	> 100 µM	> 100 µM	> 100 µM	–	–	> 100 µM	> 100 µM	–	–	–	–	–	–	–	–	–	–	–
NCCCC(=O)Nc1ccncc1	–	> 100 µM	> 100 µM	> 100 µM	> 100 µM	> 100 µM	> 100 µM	> 100 µM	> 100 µM	> 100 µM	–	> 100 µM	> 100 µM	> 100 µM	> 100 µM	> 100 µM	> 100 µM	> 100 µM	> 100 µM	> 100 µM
CCOC(=O)/C(=C\c1ccc(OCc2ccccc2)c(OC)c1)C(=O)c1ccccc1	–	58.5 µM	35.2 µM	37.7 µM	30.4 µM	33.6 µM	–	31.9 µM	31.2 µM	–	–	–	–	–	–	–	–	–	–	–
CN(C)CC(/C(Cc1ccccc1)=N\NC(=O)c1ccncc1)c1ccccc1 (stereo unspecified)	> 100 µM	> 100 µM	> 100 µM	> 100 µM	> 100 µM	> 100 µM	–	46.2 µM	> 100 µM	–	–	–	–	–	–	–	–	–	–	–
